Results taken from PMC7698151, “Evidence for Pentapeptide-Dependent and Independent CheB Methylesterases” (International Journal of Molecular Sciences, 2020).
Where “and” joins values, the source holds several entries; their conditions need not be identical. Equal entries are not always repeated. Where no end group is shown, it is not given here.

Assays:
CheB2 = target: T1, CheB2 (Pseudomonas aeruginosa, UniProt Q9I6V9); test: Microcalorimetric titration (ITC) of CheB2 with the McpB pentapeptide; parameters: species or system Pseudomonas aeruginosa PAO1; details: 25 °C, 15-40 μM protein in 5-mM Tris/HCl, 5-mM Pipes, 5-mM Mes, pH 7.0, titrated with 1-7 mM peptide, one binding site model, read-out: dissociation constant (KD)
T1 construct: His-tag (pET28b) (N); made in house; host or cells: E. coli BL21 (DE3)
Description: To verify which CheB homolog interacts with this peptide, the four CheB homologs were overexpressed in E. coli, purified, and submitted to microcalorimetric titrations with the pentapeptide of the McpB receptor, GWEEF.
Microcalorimetric titrations of the four CheB homologs (15 to 40 μM) with 14-μL aliquots (1 to 7 mM) of the GWEEF pentapeptide. […] Data were fitted using the “one binding site model” of the MicroCal version of ORIGIN.
(§1) All experiments were conducted on a VP microcalorimeter (Microcal, Amherst, MA, USA) at 25 °C. For the analysis of the CheB homologs of P. aeruginosa, 15–40 μM of proteins (dialyzed into 5-mM Tris/HCl, 5-mM Pipes, and 5-mM Mes, pH 7.0) were placed into the sample cell and titrated with 1–7-mM solution of the GWEEF peptide (synthesized by Biomedal S.L., Seville, Spain). […] All ligand solutions were prepared in dialysis buffer immediately before use. The mean enthalpies measured from the injection of the peptide into the buffer were subtracted from the raw titration data prior to data analysis with the “one binding site model” of the MicroCal version of ORIGIN.

[1] = target: T2, CheB2 D55E mutant protein (Pseudomonas aeruginosa, UniProt Q9I6V9, D55E); test: Microcalorimetric titration (ITC) of the CheB2 D55E mutant with the GWEEF peptide; format: binding, Pseudomonas aeruginosa PAO1
T2 construct: His-tag (pET28b) (N); made in house; host or cells: E. coli BL21 (DE3)
T2 sequence (Q9I6V9 1-349 D55E): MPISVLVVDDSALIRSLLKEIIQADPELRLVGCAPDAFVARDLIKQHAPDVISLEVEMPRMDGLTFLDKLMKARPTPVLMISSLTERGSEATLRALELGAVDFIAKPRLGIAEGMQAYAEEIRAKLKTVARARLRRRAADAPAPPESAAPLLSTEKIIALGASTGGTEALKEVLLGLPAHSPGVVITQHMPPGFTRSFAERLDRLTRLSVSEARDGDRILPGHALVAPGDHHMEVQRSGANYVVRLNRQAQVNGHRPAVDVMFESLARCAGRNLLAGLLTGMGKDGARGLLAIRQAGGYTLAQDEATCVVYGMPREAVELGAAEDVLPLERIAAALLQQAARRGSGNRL
Description: as §1

CheR from E. coli = details: cited from earlier work
Description: This pentapeptide, NWETF, represents an additional binding site for CheR and CheB [8, 9]. […] St ...

T1 sequence (Q9I6V9 whole entry): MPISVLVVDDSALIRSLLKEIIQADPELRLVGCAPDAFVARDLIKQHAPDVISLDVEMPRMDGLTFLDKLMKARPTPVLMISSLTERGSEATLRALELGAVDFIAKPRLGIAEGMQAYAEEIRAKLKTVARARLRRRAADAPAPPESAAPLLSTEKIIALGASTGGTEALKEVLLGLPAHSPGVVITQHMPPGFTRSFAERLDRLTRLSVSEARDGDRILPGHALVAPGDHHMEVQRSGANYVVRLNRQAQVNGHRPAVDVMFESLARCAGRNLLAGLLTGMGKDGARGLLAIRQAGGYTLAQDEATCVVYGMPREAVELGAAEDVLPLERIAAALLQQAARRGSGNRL

Substance	Kd (CheB2) [mM]	Kd [1] [µM]	Kd (CheR from E. coli)
GWEEF [GWEEF]	0.093	56 ± 14	–
NWETF [C-terminal pentapeptide of E. coli Tar/Tsr and of eight P. atrosepticum SCRI1043 chemoreceptors]	–	–	2 µM and ~2 µM
